Measured values taken from patent publication US9982231B2, “Methods for reprogramming differentiated non-cardiac cells into cardiomyocytes” (The J. David Gladstone Institutes, a testamentary trust …, priority 2013, dated 2018).

Columns and labels:
[1] = target: PDGF receptor tyrosine kinase; conditions: PDGFR kinase / PDGF receptor tyrosine kinase; cited from earlier work
[2] = target: epidermal growth factor receptor (EGFR) (Homo sapiens, UniProt P00533); conditions: EGFR / EGF receptor kinase; cited from earlier work
[3] = test system: contracting cardiomyocytes derived from human fibroblast cells; assay: Responses of reprogrammed cardiomyocytes to β-adrenergic and muscarinic stimulation; type: cell-based; conditions: cardiomyocytes reprogrammed from CRL-2097
Experimental: Naïve human fibroblast CRL-2097 cells were treated with cardiac reprogramming medium for 6 days followed by treatment with cardiac induction medium 1 for 5 days and then cardiac induction medium 2 for 21-26 days.
Representative beating frequencies of the reprogrammed cells are shown in FIG. 7A before (i) or after β-adrenergic stimulation by its agonist (ii, isoproterenol), or a muscarinic agonist (iii. Carbachol; CCh).

SAPK2/p38 = SAPK2/p38 (Homo sapiens, UniProt Q16539); conditions: CK1 and ALK5 inhibitor vs SAPK2/p38; cited from earlier work
[4] = test system: human foreskin fibroblast cells; assay: Reprogramming with PBIT as a substitute for AS8351; type: cell-based
Experimental: FIG. 8A graphically illustrates the knockdown efficiency of the indicated shRNAs in human foreskin fibroblast cells detected by qPCR (n=2). Expression values for each gene were normalized to those measured in control shRNA group. […] Data were collected on day 30. […] Data were collected on day 30. […] FIG. 8E illustrates immunofluorescence staining of cardiomyocyte markers on contracting clusters at day 30 after inducing reprogramming where AS8351 was replaced with 10 μM PBIT. Scale bars, 100 μm. […] Em, membrane potential. Dotted lines indicate 0 mV. F/F0, fluorescence relative to the baseline.
This conclusion was further confirmed by using a KDM5B inhibitor, PBIT (Sayegh et al., 2013) (FIGS. 8C and 8D).
KDM5B catalyzes the demethylation of tri-, di-, and mono-methylation states of H3K4 and facilitates heterochromatin formation (Mosammaparast and Shi, 2010). The inventors have observed that one effect of the reprogramming compositions described herein is on re-opening closed chromatin structures.

RasGAP = target: T1, RasGAP (Homo sapiens, UniProt P20936); conditions: cited from earlier work
T1 sequence (P20936 1-1047): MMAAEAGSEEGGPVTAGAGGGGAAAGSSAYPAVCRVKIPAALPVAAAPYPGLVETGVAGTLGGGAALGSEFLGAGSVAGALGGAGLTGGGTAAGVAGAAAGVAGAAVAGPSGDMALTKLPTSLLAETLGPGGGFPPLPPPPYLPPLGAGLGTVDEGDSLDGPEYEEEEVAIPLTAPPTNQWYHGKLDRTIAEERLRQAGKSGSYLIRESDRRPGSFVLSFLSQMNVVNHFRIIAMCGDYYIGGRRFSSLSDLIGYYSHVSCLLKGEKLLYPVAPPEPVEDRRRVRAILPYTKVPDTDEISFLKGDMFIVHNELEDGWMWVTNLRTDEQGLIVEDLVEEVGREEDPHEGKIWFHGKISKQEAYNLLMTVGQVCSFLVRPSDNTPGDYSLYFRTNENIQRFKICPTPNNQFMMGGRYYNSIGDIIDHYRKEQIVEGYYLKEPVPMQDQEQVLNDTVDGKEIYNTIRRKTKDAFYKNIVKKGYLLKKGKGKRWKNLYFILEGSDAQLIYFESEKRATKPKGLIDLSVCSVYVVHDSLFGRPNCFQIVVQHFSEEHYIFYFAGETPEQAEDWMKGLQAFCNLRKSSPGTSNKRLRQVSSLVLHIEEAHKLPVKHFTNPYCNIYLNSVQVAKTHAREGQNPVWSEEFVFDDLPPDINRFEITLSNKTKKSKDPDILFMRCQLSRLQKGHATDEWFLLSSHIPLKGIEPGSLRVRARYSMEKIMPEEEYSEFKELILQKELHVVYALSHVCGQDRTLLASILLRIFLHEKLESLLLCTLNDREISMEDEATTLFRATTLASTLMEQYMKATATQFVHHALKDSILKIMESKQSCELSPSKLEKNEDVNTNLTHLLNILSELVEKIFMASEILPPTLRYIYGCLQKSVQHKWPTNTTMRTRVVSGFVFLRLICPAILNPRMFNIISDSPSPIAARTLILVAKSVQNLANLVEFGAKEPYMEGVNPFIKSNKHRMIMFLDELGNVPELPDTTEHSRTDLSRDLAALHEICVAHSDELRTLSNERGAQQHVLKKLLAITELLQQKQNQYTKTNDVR

ERK1 = ERK1 (Homo sapiens, UniProt P27361); conditions: cited from earlier work
[5] = test system: human adult dermal fibroblasts (HADFs); assay: Conversion of human adult dermal fibroblasts into chemically induced cardiomyocytes; type: cell-based
From the text: 9C is the reprogramming conditions; CCM. CM-conditioned medium; D, day. […] FIG. 9C graphically illustrates test protocols for ascertaining optimal treatment durations for a combination of sodium butyrate and SMER28 (NS) (n=3). The duration shown on the x-axis of the left graph is days (e.g., D0=day zero; D-14=day 14 of treatment). […] Scale bars, 100 μm.

[6] = target: platelet-derived growth factor receptor β (PDGFRβ) (Homo sapiens, UniProt P09619); conditions: cited from earlier work
[7] = 7-day pretreatment before reprogramming

Chain of ERK1 (P27361 whole entry, species assumed): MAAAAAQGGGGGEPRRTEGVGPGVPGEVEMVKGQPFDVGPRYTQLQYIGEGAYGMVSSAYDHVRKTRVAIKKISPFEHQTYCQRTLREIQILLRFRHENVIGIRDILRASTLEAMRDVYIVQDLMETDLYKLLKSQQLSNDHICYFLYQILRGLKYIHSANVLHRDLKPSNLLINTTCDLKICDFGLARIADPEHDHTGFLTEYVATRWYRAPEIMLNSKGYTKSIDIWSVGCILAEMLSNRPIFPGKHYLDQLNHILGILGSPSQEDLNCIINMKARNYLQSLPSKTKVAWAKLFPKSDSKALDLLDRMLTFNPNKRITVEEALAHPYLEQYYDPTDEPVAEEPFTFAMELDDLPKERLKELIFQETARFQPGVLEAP
Chain of SAPK2/p38 (Q16539 whole entry): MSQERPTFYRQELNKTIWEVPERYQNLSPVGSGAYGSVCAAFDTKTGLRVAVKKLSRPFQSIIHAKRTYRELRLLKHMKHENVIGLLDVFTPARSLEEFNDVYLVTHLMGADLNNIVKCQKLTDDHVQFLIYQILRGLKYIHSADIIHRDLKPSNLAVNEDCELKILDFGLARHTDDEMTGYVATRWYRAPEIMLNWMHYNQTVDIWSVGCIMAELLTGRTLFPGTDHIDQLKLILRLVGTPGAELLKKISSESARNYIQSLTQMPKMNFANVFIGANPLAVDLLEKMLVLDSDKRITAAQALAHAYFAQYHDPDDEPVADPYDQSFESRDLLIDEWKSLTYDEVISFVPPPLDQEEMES
Chain of platelet-derived growth factor receptor β (PDGFRβ) (P09619 33-1106): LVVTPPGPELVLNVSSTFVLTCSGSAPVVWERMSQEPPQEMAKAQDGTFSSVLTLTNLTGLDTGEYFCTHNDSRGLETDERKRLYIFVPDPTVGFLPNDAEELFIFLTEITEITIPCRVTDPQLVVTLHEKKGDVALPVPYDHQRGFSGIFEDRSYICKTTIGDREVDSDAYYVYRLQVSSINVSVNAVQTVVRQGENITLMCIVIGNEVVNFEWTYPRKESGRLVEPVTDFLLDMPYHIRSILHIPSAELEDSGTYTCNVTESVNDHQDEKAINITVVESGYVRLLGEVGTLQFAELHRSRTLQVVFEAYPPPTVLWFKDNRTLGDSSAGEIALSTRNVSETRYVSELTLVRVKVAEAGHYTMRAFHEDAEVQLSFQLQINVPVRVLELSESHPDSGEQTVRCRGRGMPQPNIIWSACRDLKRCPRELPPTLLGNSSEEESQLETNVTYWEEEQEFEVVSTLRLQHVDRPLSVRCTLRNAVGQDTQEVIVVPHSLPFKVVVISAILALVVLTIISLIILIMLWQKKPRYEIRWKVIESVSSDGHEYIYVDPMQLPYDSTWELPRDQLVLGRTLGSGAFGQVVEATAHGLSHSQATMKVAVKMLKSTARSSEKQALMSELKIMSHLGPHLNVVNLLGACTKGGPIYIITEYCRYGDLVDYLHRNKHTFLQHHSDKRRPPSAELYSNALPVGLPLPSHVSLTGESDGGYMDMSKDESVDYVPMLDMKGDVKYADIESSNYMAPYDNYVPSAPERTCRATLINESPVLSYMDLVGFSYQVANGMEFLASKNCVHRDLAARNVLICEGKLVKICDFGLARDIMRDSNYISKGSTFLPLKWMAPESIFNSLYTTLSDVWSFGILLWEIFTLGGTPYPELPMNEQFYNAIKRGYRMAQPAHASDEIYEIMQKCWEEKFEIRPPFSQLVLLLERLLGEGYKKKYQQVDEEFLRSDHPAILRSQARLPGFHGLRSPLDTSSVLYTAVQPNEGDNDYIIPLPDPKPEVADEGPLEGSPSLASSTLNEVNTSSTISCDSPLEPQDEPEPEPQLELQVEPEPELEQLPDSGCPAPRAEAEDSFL
Chain of epidermal growth factor receptor (EGFR) (P00533 25-1210, species assumed): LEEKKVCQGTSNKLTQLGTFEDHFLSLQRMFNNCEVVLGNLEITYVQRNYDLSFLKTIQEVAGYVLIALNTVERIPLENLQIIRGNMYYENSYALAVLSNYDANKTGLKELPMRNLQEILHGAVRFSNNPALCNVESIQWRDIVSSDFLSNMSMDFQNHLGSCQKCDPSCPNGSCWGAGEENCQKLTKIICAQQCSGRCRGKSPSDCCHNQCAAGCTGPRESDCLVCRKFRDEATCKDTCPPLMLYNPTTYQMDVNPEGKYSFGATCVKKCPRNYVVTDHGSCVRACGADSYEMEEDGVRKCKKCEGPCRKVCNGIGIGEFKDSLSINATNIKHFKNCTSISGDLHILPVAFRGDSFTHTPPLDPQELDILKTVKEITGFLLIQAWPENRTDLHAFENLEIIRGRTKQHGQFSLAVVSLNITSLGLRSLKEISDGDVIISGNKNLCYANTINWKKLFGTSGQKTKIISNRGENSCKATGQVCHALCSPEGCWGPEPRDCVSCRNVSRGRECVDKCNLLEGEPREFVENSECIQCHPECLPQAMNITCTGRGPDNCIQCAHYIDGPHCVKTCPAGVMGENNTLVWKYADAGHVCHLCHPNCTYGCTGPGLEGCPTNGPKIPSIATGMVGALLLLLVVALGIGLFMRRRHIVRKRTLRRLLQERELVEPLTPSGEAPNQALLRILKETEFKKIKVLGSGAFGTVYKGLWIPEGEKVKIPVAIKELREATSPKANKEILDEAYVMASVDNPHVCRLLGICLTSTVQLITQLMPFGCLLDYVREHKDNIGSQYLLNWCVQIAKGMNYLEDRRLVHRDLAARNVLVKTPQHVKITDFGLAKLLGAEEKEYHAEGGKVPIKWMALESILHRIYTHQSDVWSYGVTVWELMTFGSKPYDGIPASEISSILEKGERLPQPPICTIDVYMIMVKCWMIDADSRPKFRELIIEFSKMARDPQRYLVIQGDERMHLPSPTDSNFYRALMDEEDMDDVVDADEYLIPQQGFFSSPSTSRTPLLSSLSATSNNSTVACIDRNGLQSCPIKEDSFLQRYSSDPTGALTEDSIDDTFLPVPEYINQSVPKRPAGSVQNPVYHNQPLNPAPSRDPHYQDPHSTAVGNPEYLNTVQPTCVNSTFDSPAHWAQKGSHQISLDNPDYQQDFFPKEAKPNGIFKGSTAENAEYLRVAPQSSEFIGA

In the case of N#CC(C#N)=Cc1ccc(O)c(O)c1 [AG18, [(3,4-Dihydroxyphenyl)methylene]-propenedinitrile], the IC50 [1] is given as 25000 nM.

In the case of N#CC(=Cc1ccc2[nH]ccc2c1)C(N)=C(C#N)C#N [AG-370, 2-Amino-4-(1H-indol-5-yl)-1,1,3-tricyanobuta-1,3-diene], the IC50 [2] is listed as 820000 nM and the IC50 [1] is listed as 20000 nM.

In the case of COc1cc2ncc(-c3ccccc3)nc2cc1OC [AG-1296, 6,7-Dimethoxy-3-phenylquinoxaline], the IC50 [1] is listed as 1000 nM.

In the case of C[N+](C)(C)CCOC(N)=O [Cch, carbachol], the “effect on beating frequency” value [3] is reported as “opposite, negative effect”.

In the case of NC(=O)c1ccc(-c2nc(-c3ccc4c(c3)OCCO4)c(-c3ccccn3)[nH]2)cc1 [D 4476, 4-[4-(2,3-Dihydro-1,4-benzodioxin-6-yl)-5-(2-pyridinyl)-1H-imidazol-2-yl]benzamide], the “selectivity over SAPK2/p38” value (SAPK2/p38) is given as “greater than 20 fold”.

For Cc1ccc(-n2sc3ccccc3c2=O)cc1 [PBIT, 2-(4-methylphenyl)-1,2-benzisothiazol-3(2H)-one], the electrophysiological features ([4]; 10 μM PBIT as a substitute for AS8351) was “exhibited CM-like electrophysiological features” and the “expression of cardiac proteins” value ([4]; 10 μM PBIT as a substitute for AS8351, day 30) was “expressed a broad panel of cardiac proteins”.

For Cc1cc(Nc2ncc3c(n2)N(C)C(=O)N(c2cc(NC(=O)c4cccc(C(F)(F)F)c4)ccc2C)C3)n(C)n1 [SC1, N-(3-(7-(1,3-dimethyl-1H-pyrazol-5-ylamino)-1-methyl-2-oxo-1,2-dihydropyrimido[4,5-d]pyrimidin-3(4H)-yl)-4-methylphenyl)-3-(trifluoromethyl)benzamide], the Kd (RasGAP) is listed as 98 nM and the Kd (ERK1) is listed as 212 nM.

For C=CCNc1ncnc2ccc(Br)cc12 [SMER28], the “generation of beating cardiac clusters from HADFs” value [5, 7] was “enabled the generation of beating cardiac clusters” and the “proliferation of HADFs” value [5, 7] was “increased the proliferation of HADFs”.

For Cc1[nH]c(C=C2C(=O)Nc3ccccc32)c(C)c1CCC(=O)O [SU 6668], the IC50 [6] is listed as 60 nM.

In the case of CC(C)(C)c1cc(C=C(C#N)C#N)cc(C(C)(C)C)c1O [Tyrphostin 9], the IC50 [1] is listed as 1200 nM.

In the case of N#C/C(=C\c1ccc(O)c(O)c1)C(N)=O [Tyrphostin 46], the IC50 [1] is given as 50000 nM.

With CC(C)NCC(O)c1ccc(O)c(O)c1 (centres unmarked) [isoproterenol] the “effect on beating frequency” value [3] was “significantly increased”.

In the case of CCCC(=O)[O-].[Na+] [sodium butyrate (NaB), sodium butyrate], the “induction efficiency of HADFs” value ([5]; pretreatment in combination with SMER28) is reported as “further increased the induction efficiency of HADFs”.
